The record followed here is paper PMC7284870, “Antimicrobial Peptides from Rat-Tailed Maggots of the Drone Fly Eristalis tenax Show Potent Activity against Multidrug-Resistant Gram-Negative Bacteria” (Microorganisms, 2020).

For one data set, the system named is S. aureus ATCC 33592. The data set is classed as cell-based, Staphylococcus aureus. To be noted: ATCC 33592, 18 h. The method, then:
(§1) The strains that were used in this study (Table 2 and Table S1) were cultivated at 37 °C in cation-adjusted Mueller–Hinton broth (CAMB) in Erlenmeyer flasks, or on the same medium with agar in Petri dishes. Exceptionally, Mycobacterium smegmatis was cultivated at 37 °C in brain heart infusion (BHI) medium that was supplemented with 1% Tween-80 in Erlenmeyer flasks, or on the same medium lacking detergent but with agar in Petri dishes. Strains listed with Robert Koch Institute (RKI) strain numbers are clinical isolates from the RKI strain collection originating from hospitalized patients in Germany. The remaining strains originated from the Sanofi strain collection and they were originally purchased from the American Type Culture Collection or the German Collection of Microorganisms and Cell Cultures. Meropenem/colistin-resistant strains were maintained, as described above, with the appropriate antibiotic added at levels below the minimal inhibitory concentration (MIC).
(§2) The MIC values were determined in 384-well microtiter plates with an assay volume of 20 µL. Immediately before each assay, the cultures of test organisms (bacteria grown for 18 h, Candida albicans and M. smegmatis grown for 48 h) were diluted with the appropriate medium to a density of 1 × 10^6 cells/mL (C. albicans), 1 × 10^5 cells/mL (M. smegmatis) or 5 × 10^5 cells per mL (other species). […] We transferred 2-µL aliquots from this dilution series to new 384-well microtiter plates while using a CyBio-Well 384-channel automated pipettor (Analytic Jena, Jena, Germany) and added 18 µL of the diluted suspension of each test species using a Viafill reagent dispenser (Integra), thus reducing the final peptide concentration 10-fold to the range 1024–0.03125 µg/mL. […] The growth of M. smegmatis was measured using the BacTiter-Glo luminescence test system (Promega, Madison, WI, USA). The growth of the other species was determined by visual inspection of the microtiter plate and turbidimetry based on the optical density at 600 nm (OD600). The MIC was defined as the peptide concentration at which no bacterial growth was observed. We supplemented the test medium with either 150 mM NaCl or 1.25 mM CaCl2 to represent monovalent and divalent cations to simulate physiological conditions.

A further data set relates to E. coli RKI 131/08. In words: microbe, parasite or virus in culture. The data set is classed as cell-based, Escherichia coli. As to conditions: RKI 131/08, 18 h. As for the experimental part: as §1, §2
The test system of a further data set is K. pneumoniae RKI 93/10. Kind of data set: microbe, parasite or virus in culture. The data set is classed as cell-based, Klebsiella pneumoniae. As to conditions: RKI 93/10, 18 h. The method, then:
as §1, §2

The subject of the next data set is A. baumannii RKI 19/09. Kind of data set: microbe, parasite or virus in culture. The data set is classed as cell-based, Acinetobacter baumannii. As to conditions: RKI 19/09, 18 h. The method, then:
as §1, §2

The subject of data set [1] is Acinetobacter baumannii ATCC 19606. It is filed as cell-based. As to conditions: ATCC 19606, 18 h. As for the experimental part: as §1, §2
Another data set concerns Escherichia coli D31. The data set is classed as cell-based. As to conditions: D31, 18 h. As for the experimental part: as §1, §2
Data set [2] deals with Klebsiella pneumoniae DSM 30104. It is filed as cell-based. As to conditions: DSM 30104, 18 h. As for the experimental part:
as §1, §2

Data set [3] deals with Pseudomonas aeruginosa ATCC 27853. The data set is classed as cell-based. As to conditions: ATCC 27853, 18 h. As for the experimental part: as §1, §2
The subject of data set [4] is Staphylococcus aureus ATCC 25923. It is filed as cell-based. To be noted: ATCC 25923, 18 h. The method, then: as §1, §2
In a further data set the test system is HepG2 cells. Kind of data set: Cytotoxicity (ATP quantification and neutral red uptake). As for the experimental part:
The cytotoxicity of the AMPs was determined in 96-well microtiter plates with an assay volume of 200 µL. The peptides were dissolved in PBS and a 1:2 dilution series in DMEM-F12 medium (supplemented with 1% nonessential amino acids, 1% sodium pyruvate, and 5% heat-inactivated fetal calf serum) was prepared in nine steps to produce test concentrations of 400, 200, 100, […], 12.5, 6.25, 3.13, and 1.56 μM (1655–6.46 µg/mL for EtCec1-a, 1713–6.68 µg/mL for EtCec2-a, 1622–6.33 µg/mL for EtCec3-a, 2661–10.38 µg/mL for EtDip). Stocks of the mycoplasma-free HepG2 cell line HB-8065 (ATCC) stored in liquid nitrogen were seeded at a density of 20,000 cells/well into 96-well microplates in 100 μL DMEM-F12 supplemented as above. After incubation overnight at 37 ± 1 °C in a 5% CO2 atmosphere, 100 μL of the test solution was added per well in six replicates. Ketoconazole was used as a positive control and PBS as a negative control. The plates were incubated for 24 h, as above, and the cell viability was assessed using the luminescent CellTiter-Glo ATP monitoring kit (Promega) to determine the quantity of ATP.
HepG2 cells and peptides were prepared as described above, and cell viability was assessed based on the ability of lysosomes to store the dye neutral red (Sigma–Aldrich, ST. Louis, MO, USA). The cells were incubated for 3 h with a neutral red solution, washed twice, and lysed. After complete lysis, the quantity of neutral red was determined by measuring the absorption at 540 nm while using a Tecan Genios Pro plate reader.

The target of data set [5] is human ERG (hERG) potassium channel (Homo sapiens, UniProt Q12809). In words: cell-based. The method, then:
The interaction of the peptides with the human ERG (hERG) potassium channel was analyzed using the automated patch-clamp method. Chinese hamster ovary (CHO) hERG Duo cells constitutively expressing hERG (B’SYS) were diluted to 8 × 10^6 cells/mL in Ex-Cell CHO medium (Sigma–Aldrich) containing 25 mM HEPES, 100 U/mL penicillin-streptomycin, and 0.004% soybean trypsin inhibitor. The peptides were diluted from a stock concentration of 10 mM in DMSO to final concentrations of 0.12, 0.37, 1.1, 3.3, 10, and 30 μM (0.5–124 µg/mL for […], 0.51–128 µg/mL for EtCec2-a, 0.49–122 µg/mL for EtCec3-a, 0.8–200 µg/mL for EtDip) in extracellular medium (150 mM NaCl, 4 mM KCl, 2 mM CaCl2, 1 mM MgCl2, 10 mM HEPES, 10 mM glucose) containing 0.06% Pluronic F-68 and 0.3% residual DMSO. The response of hERG to each peptide was assessed while using a QPatch HTX station and QPlates (Sophion/Biolin Scientific, Ballerup, Denmark) by recording the tail current following channel repolarization. Half-maximal inhibitory concentrations (IC50) were determined from a series of six concentrations applied to the cells in ascending order. Terfenadine citrate was used as a positive control and extracellular medium as a negative control.

No end group written: not given here.

human ERG (hERG) potassium channel, sequence (Q12809 whole entry): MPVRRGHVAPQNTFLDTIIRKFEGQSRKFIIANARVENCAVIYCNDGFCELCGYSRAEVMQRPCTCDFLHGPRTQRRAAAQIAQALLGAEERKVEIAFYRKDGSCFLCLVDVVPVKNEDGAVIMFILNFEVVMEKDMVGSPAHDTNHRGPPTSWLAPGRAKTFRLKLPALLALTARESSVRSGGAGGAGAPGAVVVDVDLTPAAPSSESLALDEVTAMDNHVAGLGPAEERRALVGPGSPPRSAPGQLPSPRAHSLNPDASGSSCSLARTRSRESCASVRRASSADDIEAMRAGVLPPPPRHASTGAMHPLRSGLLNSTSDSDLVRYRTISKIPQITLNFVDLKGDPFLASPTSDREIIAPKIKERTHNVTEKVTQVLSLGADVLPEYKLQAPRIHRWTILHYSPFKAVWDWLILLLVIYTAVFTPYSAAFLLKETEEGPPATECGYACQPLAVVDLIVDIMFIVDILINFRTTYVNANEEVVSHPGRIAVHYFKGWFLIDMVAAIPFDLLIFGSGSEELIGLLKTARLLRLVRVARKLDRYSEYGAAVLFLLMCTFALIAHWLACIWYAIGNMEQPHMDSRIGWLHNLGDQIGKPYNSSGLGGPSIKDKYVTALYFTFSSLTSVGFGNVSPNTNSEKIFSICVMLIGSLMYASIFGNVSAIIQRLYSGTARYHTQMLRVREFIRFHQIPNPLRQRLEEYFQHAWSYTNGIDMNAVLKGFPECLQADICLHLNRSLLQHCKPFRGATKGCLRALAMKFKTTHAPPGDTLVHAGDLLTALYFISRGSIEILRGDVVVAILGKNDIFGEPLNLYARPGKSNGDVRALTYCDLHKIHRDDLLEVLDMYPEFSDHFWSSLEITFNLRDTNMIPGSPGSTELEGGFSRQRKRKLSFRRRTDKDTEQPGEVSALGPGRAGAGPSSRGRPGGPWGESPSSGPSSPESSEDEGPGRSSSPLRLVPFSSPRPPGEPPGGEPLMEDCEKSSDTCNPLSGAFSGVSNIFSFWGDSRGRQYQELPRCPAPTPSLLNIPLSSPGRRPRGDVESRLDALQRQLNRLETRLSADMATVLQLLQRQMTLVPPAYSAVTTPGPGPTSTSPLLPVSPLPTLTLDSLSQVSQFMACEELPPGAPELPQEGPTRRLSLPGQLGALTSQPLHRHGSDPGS

On to “GFLKKVGKKLEGASDLTRDATIQTIAVAQAAANVAATAKQ-NH2 [EtCec3-NH2]”, for which the MIC against S. aureus ATCC 33592 is reported as over 1024 µg/mL; against E. coli RKI 131/08, over 1024 µg/mL; against K. pneumoniae RKI 93/10 it was over 1024 µg/mL; against A. baumannii RKI 19/09, over 1024 µg/mL; in [1] it was over 1024 µg/mL; in the data set with Escherichia coli D31 it was 128 µg/mL. Moreover, the MIC in [2], in data set [3] and in data set [4] was over 1024 µg/mL in each case. This substance returned an NOEC with HepG2 cells of over 1622 µg/mL. In addition, in data set [5], the IC50 is over 30 µM.
